Data reported in patent publication US10604535B2, “Compounds, compositions and methods” (Denali Therapeutics Inc., priority 2016, dated 2020).
Like-named read-outs stand apart in the source and are kept apart here.

Experiments:
[1] = system: FADD-deficient Jurkat cells; assay: Cellular necroptosis assay (human TNFα-induced necrosis, CellTiter-Glo); type: cell-based; details: 48 h, read-out: Cell IC50
GST-hRIPK1 (8-327) = GST-hRIPK1 (8-327) (Homo sapiens (Human), UniProt Q13546); assay: Fluorescent Polarization Binding (FP Binding) assay
Chain of GST-hRIPK1 (8-327) (Q13546 8-327): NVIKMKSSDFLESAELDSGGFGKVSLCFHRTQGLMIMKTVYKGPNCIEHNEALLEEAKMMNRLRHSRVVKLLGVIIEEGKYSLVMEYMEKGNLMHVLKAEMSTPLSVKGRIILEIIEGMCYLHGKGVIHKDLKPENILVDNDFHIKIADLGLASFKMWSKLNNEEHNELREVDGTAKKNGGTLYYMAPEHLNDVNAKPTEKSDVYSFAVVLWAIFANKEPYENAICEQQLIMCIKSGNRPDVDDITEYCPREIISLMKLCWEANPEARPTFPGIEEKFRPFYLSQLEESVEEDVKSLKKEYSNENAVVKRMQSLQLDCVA

[2] = Homo sapiens, Jurkat, TNFα 10 ng/mL

| IC50 (GST-hRIPK1 (8-327)) [nM] | Compound | IC50 [1, 2] [nM] | IC50 ([1]; Homo sapiens, Jurkat) [nM] | IC50 ([1]; TNFα 10 ng/mL) [nM] |
| --- | --- | --- | --- | --- |
| 0.1 to 1000 | C[C@H]1Oc2cc(S(C)(=O)=O)cnc2N(C)C(=O)[C@H]1NC(=O)c1nnc(Cc2ccccc2)[nH]1 [Example 147, 5-benzyl-N-((2R,3S)-2,5-dimethyl-8-(methylsulfonyl)-4-oxo-2,3,4,5-tetrahydropyrido[3,2-b][1,4]oxazepin-3-yl)-4H-1,2,4-triazole-3-carboxamide] | 0.1 to 1000 |  |  |
| 0.1 to 1000 | CN1C(=O)[C@@H](NC(=O)c2nnc(C3(c4ccccc4)CC3)o2)CCc2nccnc21 [Example 180A, (S)—N-(5-methyl-6-oxo-6,7,8,9-tetrahydro-5H-pyrazino[2,3-b]azepin-7-yl)-5-(1-phenylcyclopropyl)-1,3,4-oxadiazole-2-carboxamide] | 0.1 to 1000 |  |  |
| 0.1 to 1000 | O=C(N[C@H]1CCc2ccccc2-n2ccnc21)c1cc(Cc2ccccc2)on1 [Example 30, (S)-5-benzyl-N-(5,6-dihydro-4H-benzo[f]imidazo[1,2-a]azepin-4-yl)isoxazole-3-carboxamide] | 0.1 to 1000 |  |  |
| 0.1 to 1000 | CN1C(=O)[C@@H](NC(=O)c2nn(Cc3cncc(C#N)c3)cc2F)COc2cccnc21 [Example 168, (S)-1-((5-cyanopyridin-3-yl)methyl)-4-fluoro-N-(5-methyl-4-oxo-2,3,4,5-tetrahydropyrido[3,2-b][1,4]oxazepin-3-yl)-1H-pyrazole-3-carboxamide] | 0.1 to 1000 |  |  |
| 0.1 to 1000 | C=C1C[C@H](NC(=O)c2cc(Cc3ccccc3)on2)C(=O)N(C)c2ccccc21 [Example 3, (S)-5-benzyl-N-(1-methyl-5-methylene-2-oxo-2,3,4,5-tetrahydro-1H-benzo[b]azepin-3-yl)isoxazole-3-carboxamide] | 0.1 to 1000 |  |  |
| 0.1 to 1000 | C[C@H]1Oc2cccnc2N(C)C(=O)[C@H]1NC(=O)c1nn(Cc2ccc(F)cc2)cc1F [Example 143, N-((2R,3S)-2,5-dimethyl-4-oxo-2,3,4,5-tetrahydropyrido[3,2-b][1,4]oxazepin-3-yl)-4-fluoro-1-(4-fluorobenzyl)-1H-pyrazole-3-carboxamide] | 0.1 to 1000 |  |  |
| 0.1 to 1000 | C[C@H]1Oc2cc(C#N)cnc2N(C)C(=O)[C@H]1NC(=O)c1nnc(Cc2ccccc2)[nH]1 [Example 150, 5-benzyl-N-((2R,3S)-8-cyano-2,5-dimethyl-4-oxo-2,3,4,5-tetrahydropyrido[3,2-b][1,4]oxazepin-3-yl)-4H-1,2,4-triazole-3-carboxamide] | 0.1 to 1000 |  |  |
| 0.1 to 1000 | C[C@H]1Oc2cccnc2N(C)C(=O)[C@H]1NC(=O)c1cn(Cc2ccccc2)cn1 [Example 140, 1-Benzyl-N-((2R,3S)-2,5-dimethyl-4-oxo-2,3,4,5-tetrahydropyrido[3,2-b][1,4]oxazepin-3-yl)-1H-imidazole-4-carboxamide] | 0.1 to 1000 |  |  |
| 0.1 to 1000 | C[C@H]1Oc2cccnc2N(C)C(=O)[C@H]1NC(=O)c1cc(Cc2ccccc2)no1 [Example 122, 3-benzyl-N-((2R,3S)-2,5-dimethyl-4-oxo-2,3,4,5-tetrahydropyrido[3,2-b]oxazepin-3-yl)isoxazole-5-carboxamide] | 0.1 to 1000 |  |  |
| 0.1 to 1000 | CN1C(=O)[C@@H](NC(=O)c2nn(Cc3cccc(F)c3)cc2F)COc2cccnc21 [Example 135, (S)-4-Fluoro-1-(3-fluorobenzyl)-N-(5-methyl-4-oxo-2,3,4,5-tetrahydropyrido[3,2-b][1,4]oxazepin-3-yl)-1H-pyrazole-3-carboxamide] | 0.1 to 1000 |  |  |
| 0.1 to 1000 | CN1C(=O)[C@@H](NC(=O)c2nnc(C3(c4ccccc4)CC3)o2)CCc2cccnc21 [Example 145A, (S)—N-(9-methyl-8-oxo-6,7,8,9-tetrahydro-5H-pyrido[2,3-b]azepin-7-yl)-5-(1-phenylcyclopropyl)-1,3,4-oxadiazole-2-carboxamide] | 0.1 to 1000 |  |  |
| 0.1 to 1000 | [2H]C([2H])([2H])N1C(=O)[C@@H](NC(=O)c2nnc(Cc3ccccc3)o2)[C@@H](C)Oc2cccnc21 [Example 174, 5-benzyl-N-((2R,3S)-2-methyl-5-trideuteriomethyl-4-oxo-2,3,4,5-tetrahydropyrido[3,2-b][1,4]oxazepin-3-yl)-1,3,4-oxadiazole-2-carboxamide] | 0.1 to 1000 |  |  |
| 0.1 to 1000 | CN1C(=O)[C@@H](NC(=O)c2cc(Cc3ccccc3)on2)CCc2nccnc21 [Example 188, (S)-5-benzyl-N-(5-methyl-6-oxo-6,7,8,9-tetrahydro-5H-pyrazino[2,3-b]azepin-7-yl)isoxazole-3-carboxamide] | 0.1 to 1000 |  |  |
| 0.1 to 1000 | C[C@H]1Oc2cccnc2N(C)C(=O)[C@H]1NC(=O)c1ncc(Cc2ccccc2)o1 [Example 192, 5-benzyl-N-((2R,3S)-2,5-dimethyl-4-oxo-2,3,4,5-tetrahydropyrido[3,2-b][1,4]oxazepin-3-yl)oxazole-2-carboxamide] | 0.1 to 1000 |  |  |

The next lines start with the compound.

| Compound | IC50 (GST-hRIPK1 (8-327)) [nM] | IC50 [1, 2] [nM] | IC50 ([1]; Homo sapiens, Jurkat) [nM] | IC50 ([1]; TNFα 10 ng/mL) [nM] |
| --- | --- | --- | --- | --- |
| CN1C(=O)[C@@H](NC(=O)c2nn(Cc3ccccc3F)cc2F)CCc2nccnc21 [Example 178A, (S)-4-fluoro-1-(2-fluorobenzyl)-N-(5-methyl-6-oxo-6,7,8,9-tetrahydro-5H-pyrazino[2,3-b]azepin-7-yl)-1H-pyrazole-3-carboxamide] | 0.1 to 1000 | 0.1 to 1000 |  |  |
| CN1C(=O)[C@@H](NC(=O)c2nnc(Cc3ccccc3)[nH]2)CC2(CC2)c2cccnc21 [Example 125B, (S)-5-benzyl-N-(9′-methyl-8′-oxo-6′,7′,8′,9′-tetrahydrospiro[cyclopropane-1,5′-pyrido[2,3-b]azepin]-7′-yl)-4H-1,2,4-triazole-3-carboxamide] | 0.1 to 1000 | 0.1 to 1000 |  |  |
| O=C(N[C@H]1CC2(CC2)c2cc(F)cc(F)c2NC1=O)c1nnc(Cc2ccccc2)[nH]1 [Example 103B, (S)-5-benzyl-N-(7,9-difluoro-2-oxo-1,2,3,4-tetrahydrospiro[benzo[b]azepine-5,1′-cyclopropan]-3-yl)-4H-1,2,4-triazole-3-carboxamide] | 0.1 to 1000 | 0.1 to 1000 |  |  |
| CN1C(=O)[C@@H](NC(=O)c2nnc(C3(c4ccccc4)CC3)[nH]2)COc2ccccc21 [Example 35, (S)—N-(5-methyl-4-oxo-2,3,4,5-tetrahydrobenzo[b][1,4]oxazepin-3-yl)-5-(1-phenylcyclopropyl)-4H-1,2,4-triazole-3-carboxamide] | 0.1 to 1000 | 0.1 to 1000 |  |  |
| CN1C(=O)[C@@H](NC(=O)c2cc(C#N)n(Cc3ccccc3)n2)COc2cccnc21 [Example 158, (S)-1-benzyl-5-cyano-N-(5-methyl-4-oxo-2,3,4,5-tetrahydropyrido[3,2-b][1,4]oxazepin-3-yl)-1H-pyrazole-3-carboxamide] | 0.1 to 1000 |  | 0.1 to 1000 |  |
| CN1C(=O)[C@@H](NC(=O)c2nnc(Cc3ccccc3)[nH]2)COc2cnccc21 [Example 41, (S)-5-benzyl-N-(1-methyl-2-oxo-1,2,3,4-tetrahydropyrido[3,4-b][1,4]oxazepin-3-yl)-4H-1,2,4-triazole-3-carboxamide] | 0.1 to 1000 | 0.1 to 1000 |  |  |
| CN1C(=O)[C@@H](NC(=O)c2ncc(Cc3cccc(C#N)c3)s2)COc2ccccc21 [Example 164, (S)-5-(3-cyanobenzyl)-N-(5-methyl-4-oxo-2,3,4,5-tetrahydrobenzo[b][1,4]oxazepin-3-yl)thiazole-2-carboxamide] | 0.1 to 1000 | 0.1 to 1000 |  |  |
| C[C@H]1Oc2cccnc2NC(=O)[C@H]1NC(=O)c1nnc(Cc2ccccc2)[nH]1 [Example 96, 5-benzyl-N-((2R,3S)-2-methyl-4-oxo-2,3,4,5-tetrahydropyrido[3,2-b][1,4]oxazepin-3-yl)-4H-1,2,4-triazole-3-carboxamide] | 0.1 to 1000 | 0.1 to 1000 |  |  |
| CN1C(=O)[C@@H](NC(=O)c2cc(Oc3ccccc3F)cnn2)COc2cccnc21 [Example 149, (S)-5-(2-fluorophenoxy)-N-(5-methyl-4-oxo-2,3,4,5-tetrahydropyrido[3,2-b][1,4]oxazepin-3-yl)pyridazine-3-carboxamide] | 0.1 to 1000 | 0.1 to 1000 |  |  |
| (S)-1-(2-cyanobenzyl)-4-fluoro-N-(5-methyl-4-oxo-2,3,4,5-tetrahydropyrido[3,2-b][1,4]oxazepin-3-yl)-1H-pyrazole-3-carboxamide [Example 153] | 0.1 to 1000 |  |  | 0.1 to 1000 |
| CN1C(=O)[C@@H](NC(=O)c2cc(F)n(Cc3ccc(F)cc3)n2)COc2cccnc21 [Example 166, (S)-5-fluoro-1-(4-fluorobenzyl)-N-(5-methyl-4-oxo-2,3,4,5-tetrahydropyrido[3,2-b][1,4]oxazepin-3-yl)-1H-pyrazole-3-carboxamide] | 0.1 to 1000 | 0.1 to 1000 |  |  |
| CN1C(=O)[C@@H](NC(=O)c2nn(Cc3ccccc3F)cc2F)[C@H]2C[C@H]2c2nccnc21 [Example 179A, 4-fluoro-1-(2-fluorobenzyl)-N-((7S,7aS,8aR)-5-methyl-6-oxo-5,6,7,7a,8,8a-hexahydrocyclopropa[d]pyrazino[2,3-b]azepin-7-yl)-1H-pyrazole-3-carboxamide] | 0.1 to 1000 | 0.1 to 1000 |  |  |
| CN1C(=O)[C@@H](NC(=O)c2cn(Cc3ccccc3)nn2)COc2cccnc21 [Example 201, (S)-1-benzyl-N-(5-methyl-4-oxo-2,3,4,5-tetrahydropyrido[3,2-b][1,4]oxazepin-3-yl)-1H-1,2,3-triazole-4-carboxamide] | 0.1 to 1000 | 0.1 to 1000 |  |  |
| CN1C(=O)[C@@H](NC(=O)c2nn(Cc3cccc(C#N)c3)cc2F)COc2cccnc21 [Example 144, (S)-1-(3-cyanobenzyl)-4-fluoro-N-(5-methyl-4-oxo-2,3,4,5-tetrahydropyrido[3,2-b][1,4]oxazepin-3-yl)-1H-pyrazole-3-carboxamide] | 0.1 to 1000 | 0.1 to 1000 |  |  |
| CN1C(=O)[C@@H](NC(=O)c2nnc(Cc3ccccc3)[nH]2)COc2c(C#N)cccc21 [Example 56, (S)-5-benzyl-N-(9-cyano-5-methyl-4-oxo-2,3,4,5-tetrahydrobenzo[b][1,4]oxazepin-3-yl)-2H-1,2,4-triazole-3-carboxamide] | 0.1 to 1000 | 0.1 to 1000 |  |  |
